SMILES | melting point
CCn1ccnc1COc1ccc2c(C#N)c(-c3ccc(NC(=O)OC(C)C)cc3)n(C3CCC3)c2c1 [Compound 2881] | 197 to 203 °C
CCn1c(-c2ccc(NC(=O)OC(C)C)cc2)c(C#N)c2ccc(OCCOC)cc21 [Compound 1406] | 141 to 144 °C
CCCS(=O)(=O)Nc1ccc(-c2c(C#N)c3ccc(Oc4nccnc4Cl)cc3n2C2CCC2)cc1 [Compound 2930] | 227 to 229 °C
N#Cc1c(-c2ccc(NS(=O)(=O)C3CC3)cc2)n(C2CCC2)c2ccc(OC3COCOC3)cc12 [Compound 2775] | 199 to 203 °C
CCn1c(-c2cccc(NC(=O)N3CCN(C)CC3)c2)c(C#N)c2ccc(OC)cc21 [Compound 1375] | 108 to 120 °C
C[C@@H](OC(=O)Nc1ccc(-c2c(C#N)c3ccc(C(=O)N(C)C)cc3n2C2CCC2)cc1)C1CC1 [Compound 2276] | 118 to 120 °C
CC(C)NS(=O)(=O)Nc1ccc(-c2c(C#N)c3ccc(Oc4nccnc4Cl)cc3n2C2CC2)cc1 [Compound 2947] | 130 °C (dec.)
CCOCCOc1ccc2c(C#N)c(-c3ccc(NC(=O)OC(C)C(F)(F)F)cc3)n(C3CCC3)c2c1 (stereo not shown) [Compound 2636] | 122 to 124 °C
CCCS(=O)(=O)Nc1ccc(-c2c(C#N)c3ccc(N4CCOCC4)cc3n2C2CCC2)cc1 [Compound 2803] | 203 to 204 °C
C[C@@H](OC(=O)Nc1ccc(-c2c(C#N)c3ccc(N4CCCCC4)cc3n2CC2CC2)cc1)C1CC1 [Compound 2907] | 127 to 132 °C
CCCS(=O)(=O)Nc1ccc(-c2c(C#N)c3ccc(OCCCO)cc3n2C2CCC2)cc1 [Compound 1450] | 162 to 163 °C
CC(C)[C@H](C)OC(=O)Nc1ccc(-c2c(C#N)c3ccc(OC4COCOC4)cc3n2C2CCC2)cc1 [Compound 2859] | 200 to 201 °C
CC(C)NC(=O)Nc1ccc(-c2c(C#N)c3cc(OCCCn4ccnc4)ccc3n2C2CCC2)cc1 [Compound 2727] | 232 to 234 °C
CCS(=O)(=O)Nc1ccc(-c2c(C#N)c3ccc(OC4CCOCC4)cc3n2C2CCC2)cc1 [Compound 2745] | 207 to 209 °C
CC(C)OC(=O)Nc1ccc(-c2c(C#N)c3ccc(O[C@@H]4CCOC4)cc3n2C2CCC2)cc1 [Compound 2638] | 196 to 197 °C
C[C@@H](OC(=O)Nc1ccc(-c2c(C#N)c3ccc(N4CCOCC4)cc3n2CC2CC2)cc1)C1CC1 [Compound 2933] | 167 to 173 °C
COCCOc1ccc2c(C#N)c(-c3ccc(NC(=O)OC(C)(C)C(F)(F)F)cc3)n(C(C)C)c2c1 [Compound 2718] | 188 to 191 °C
CC(OC(=O)Nc1ccc(-c2c(C#N)c3ccc(OC4CCOC4)cc3n2C2CCC2)cc1)C1CCCC1 (stereo not shown) [Compound 1460] | 183 to 184 °C
N#Cc1c(-c2ccc(OC(=O)N3CCCC3)cc2)n(C2CCC2)c2cc(OC3CCOCC3)ccc12 [Compound 2815] | 179 to 181 °C
N#Cc1c(-c2ccc(OC(=O)N3CCOCC3)cc2)n(CC2CC2)c2cc(OC3CCOCC3)ccc12 [Compound 2790] | 188 to 189 °C
CCn1c(-c2ccc(N3CCCS3(=O)=O)cc2)c(C#N)c2ccc(OCCOC)cc21 [Compound 1332] | 213 to 215 °C
N#Cc1c(-c2ccc(OC(=O)NC3CCCCC3)cc2)n(CC2CC2)c2cc(OC3CCOCC3)ccc12 [Compound 2785] | 158 to 160 °C
N#Cc1c(-c2ccc(NC(=O)OC3CCC3)cc2)n(C2CCC2)c2ccc(OCCn3cncn3)cc12 [Compound 2677] | 190 to 192 °C
CCn1c(-c2ccc(NC(=O)OCCF)cc2)c(C#N)c2ccc(OCCOC)cc21 [Compound 1371] | 166 to 168 °C
C[C@@H](OC(=O)Nc1ccc(-c2c(C#N)c3cc(N4CCOCC4)ccc3n2C2CCC2)cc1)c1ccc(F)cc1 [Compound 2829] | 163 to 168 °C

Other lines, results leading:

melting point | SMILES
88 to 102 °C | Cc1ccc(-c2ccc3c(C#N)c(-c4ccc(NC(=O)O[C@H](C)C5CC5)cc4)n(C4CCC4)c3c2)nc1 [Compound 3002]
110 to 113 °C | CCCS(=O)(=O)Nc1ccc(-c2c(C#N)c3ccc(Oc4ncccc4Br)cc3n2CC2CC2)c(C)c1 [Compound 3029]
250 to 252 °C | C[C@@H](OC(=O)Nc1ccc(-c2c(C#N)c3ccc(-c4cccc(N5CCCC5)n4)cc3n2C2CCC2)cc1)C1CC1 [Compound 3258]
243 to 249 °C | C[C@@H](OC(=O)Nc1ccc(-c2c(C#N)c3ccc(OC4CCS(=O)(=O)CC4)cc3n2C2CCC2)cc1)C(F)(F)F [Compound 3187]
128 to 131 °C | CCCS(=O)(=O)Nc1ccc(-c2c(C#N)c3ccc(Oc4ncccc4F)cc3n2CC2CC2)c(C)c1 [Compound 3030]
84 to 94 °C | C[C@@H](OC(=O)Nc1ccc(-c2c(C#N)c3ccc(-c4ccccn4)cc3n2C2CCC2)cc1Cl)C(F)(F)F [Compound 2994]
215 to 216 °C | CCCS(=O)(=O)Nc1ccc(-c2c(C#N)c3ccc(OCCCN4C(=O)CCC4=O)cc3n2C2CCC2)cc1 [Compound 3296]
108 to 115 °C | Cc1cc(NC(=O)O[C@H](C)C2CC2)ccc1-c1c(C#N)c2ccc(Oc3ncccc3C#N)cc2n1C1CCC1 [Compound 3333]
170 to 171 °C | CCOC(=O)Nc1ccc(-c2c(C#N)c3ccc(OCCOC)cc3n2C2CCC2)cc1 [compound 1397, {4-[3-cyano-1-cyclobutyl-6-(2-methoxy-ethoxy)-1H-indole-2-yl]-phenyl}-carbamic acid ethyl ester]
154 to 156 °C | C[C@@H](OC(=O)Nc1ccc(-c2c(C#N)c3ccc(Oc4ncccc4F)cc3n2C2CC2)cc1)C1CC1 [Compound 3007]
231 to 234 °C | CC(C)n1c(-c2ccc(NC(=O)O[C@H](C)c3ccc(F)cc3)cc2)c(C#N)c2ccc(N3CCOCC3)cc21 [Compound 2953]
241 to 245 °C | N#Cc1c(-c2ccc(Nc3nc(C(F)(F)F)cs3)cc2)n(C2CCC2)c2cc(Oc3ncccn3)ccc12 [Compound 3189]
224 to 225 °C | CC(C)n1c(-c2ccc(NS(=O)(=O)Cc3ccc(C(F)(F)F)cc3)cc2)c(C#N)c2ccc(OC(F)F)cc21 [Compound 3178]
257 to 259 °C | CCCS(=O)(=O)Nc1cc(C)c(-c2c(C#N)c3ccc(Oc4nccnc4C#N)cc3n2C2CCC2)cc1C [Compound 3336]
168 to 169 °C | N#Cc1c(-c2ccc(Oc3ncccn3)cc2)n(C2CCC2)c2cc(OC3CCOCC3)ccc12 [Compound 3167]
150 to 155 °C | CC(C)OC(=O)Nc1c(F)cc(-c2c(C#N)c3ccc(OCCF)cc3n2C2CCC2)cc1F [Compound 3039]
236 to 238 °C | Cc1cc(Nc2ccc(-c3c(C#N)c4ccc(Oc5ncccn5)cc4n3C3CCC3)cc2)n(C)n1 [compound 3285, 1-cyclobutyl-2-[4-(2,5-dimethyl-2H-pyrazol-3-ylamino)-phenyl]-6-(pyrimidin-2-yloxy)-1H-indole-3-carbonitrile]
137 to 138 °C | N#Cc1c(-c2ccc(NC(=S)NC3CCCC3)cc2)n(C2CCC2)c2cc(OC3CCOCC3)ccc12 [Compound 3157]

melting point | SMILES
167 to 169 °C | CN(C(=O)Oc1ccc(-c2c(C#N)c3ccc(OC4CCOCC4)cc3n2C2CCC2)cc1)c1ccccc1 [Compound 3112]
193 to 198 °C | C[C@@H](OC(=O)Nc1ccc(-c2c(C#N)c3ccc(OC4CCS(=O)(=O)CC4)cc3n2CC2CC2)cc1)C1CC1 [Compound 3233]
250 °C (dec.) | CCN(CC)C(=O)c1ccc2c(c1)c(C#N)c(-c1ccc(NC(=O)NC(C)C)cc1)n2C1CCC1 [Compound 3136]
138 to 142 °C | CCCS(=O)(=O)Nc1ccc(-c2c(C#N)c3ccc(Oc4cnccc4C#N)cc3n2CC2CC2)c(C)c1 [Compound 3303]
223 to 224 °C | CCOc1ccc2c(C#N)c(-c3ccc(Nc4ncccn4)cc3)n(CC3CC3)c2c1 [Compound 3252]
218 to 223 °C | C[C@@H](OC(=O)Nc1ccc(-c2c(C#N)c3ccc(OCS(C)(=O)=O)cc3n2C2CCC2)cc1)C1CC1 [compound 2988, (R)-[4-(3-cyano-1-cyclobutyl-6-methanesulfonylmethoxy-1H-indol-2-yl)-phenyl]-carbamic acid 1-cyclopropyl-ethyl ester]
208 to 210 °C | C[C@@H](OC(=O)Nc1ccc(-c2c(C#N)c3ccc(-c4cccc(Cl)n4)cc3n2C2CCC2)cc1)C1CC1 [Compound 3000]
133 to 134 °C | CCCS(=O)(=O)Nc1ccc(-c2c(C#N)c3cc(C(=O)N(CC)CC)ccc3n2C2CCC2)cc1 [Compound 3095]
209 to 212 °C | C[C@H](NS(=O)(=O)Nc1ccc(-c2c(C#N)c3ccc(Oc4nccnc4C#N)cc3n2C2CCC2)cc1)C1CC1 [Compound 3276]
144 to 154 °C | CC(C)OC(=O)Nc1c(F)cc(-c2c(C#N)c3ccc(Oc4ncccn4)cc3n2C2CCC2)cc1F [Compound 3036]
140 °C (dec.) | C[C@@H](OC(=O)Nc1ccc(-c2c(C#N)c3ccc(N4CCCC4=O)cc3n2C2CCC2)cc1)C1CC1 [Compound 3332]
149 to 152 °C | COCCOc1ccc2c(C#N)c(-c3ccc(C(=O)N[C@@H](C)c4ccccc4)cc3)n(C3CCC3)c2c1 [Compound 3131]
79 to 81 °C | C[C@@H](OC(=O)Nc1ccc(-c2c(C#N)c3ccc(OCCN4C(=O)CN(C)C4=O)cc3n2C2CCC2)cc1)C1CC1 [Compound 3272]
260 to 271 °C | CC(C)n1c(-c2ccc(N3CCCCS3(=O)=O)cc2)c(C#N)c2ccc(N3CCOCC3)cc21 [Compound 3215]
112 to 117 °C | Cc1cccc(-c2ccc3c(C#N)c(-c4ccc(NC(=O)O[C@H](C)C5CC5)cc4)n(C4CCC4)c3c2)c1 [Compound 2977]
235 °C (dec.) | C[C@@H](OC(=O)Nc1ccc(-c2c(C#N)c3ccc(N4CCS4(=O)=O)cc3n2C2CCC2)cc1)C1CC1 [Compound 3318]
168 to 169 °C | N#Cc1c(-c2ccc(Nc3ccc(F)c(C(F)(F)F)c3)cc2)n(C2CCC2)c2cc(OC3CCOCC3)ccc12 [Compound 3156]
205 to 210 °C | C[C@@H](OC(=O)Nc1ccc(-c2c(C#N)c3ccc(N4CCCC4)cc3n2C2CCC2)cc1)C1CC1 [Compound 2985]
